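Compound exposure: 48 hours, 5 concentrations, 96-well plates. GI50 is the concentration that inhibits growth by half. TGI denotes the concentration required for complete inhibition of growth.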
Experiments:
Assay in all cases: inhibition of tumour cell growth, NCI panel, 48 h
ACHN renal = test system: ACHN renal
HCT-15 colon = test system: HCT-15 colon
NCI-H23 lung = test system: NCI-H23 lung
OVCAR-5 ovarian = test system: OVCAR-5 ovarian
PC-3 prostate = test system: PC-3 prostate
SF-295 CNS = test system: SF-295 CNS
SR leukemia = test system: SR leukemia
SW-620 colon = test system: SW-620 colon
UACC-62 melanoma = test system: UACC-62 melanoma
HOP-92 NSCLC = test system: HOP-92 NSCLC

## CC1=C[C@H]2C[C@H](C)[C@H]3CC[C@H](C)[C@]4(C1)C(=O)C(O)=C(C)C(=O)[C@@]324
ACHN renal
  GI50: 34.2 µM
  TGI: > 100 µM
HCT-15 colon
  GI50: 32.7 µM
  TGI: > 100 µM
NCI-H23 lung
  GI50: 11 µM
  TGI: 29.7 µM
OVCAR-5 ovarian
  GI50: 20.4 µM
  TGI: 55.4 µM
PC-3 prostate
  GI50: 18.4 µM
  TGI: 56 µM
SF-295 CNS
  GI50: > 100 µM
  TGI: > 100 µM
SR leukemia
  GI50: 27.4 µM
  TGI: 82.6 µM
SW-620 colon
  GI50: 31.5 µM
  TGI: > 100 µM
UACC-62 melanoma
  GI50: 22 µM
  TGI: 80.2 µM

## C=C1C(=O)O[C@H]2[C@H]1CC/C(COC(=O)NCCc1c[nH]c3ccc(Cl)cc13)=C\CC[C@@]1(C)O[C@@H]21
ACHN renal
  GI50: 1.54 µM
  TGI: 2.88 µM
HCT-15 colon
  GI50: 1.16 µM
  TGI: 2.66 µM
HOP-92 NSCLC
  GI50: 1.4 µM
  TGI: 2.84 µM
NCI-H23 lung
  GI50: 1.79 µM
  TGI: 3.49 µM
OVCAR-5 ovarian
  GI50: 1.97 µM
  TGI: 4.19 µM
PC-3 prostate
  GI50: 1.72 µM
  TGI: 3.35 µM
SF-295 CNS
  GI50: 6.53 µM
  TGI: 20.3 µM
SR leukemia
  GI50: 0.944 µM
  TGI: 5.95 µM
SW-620 colon
  GI50: 1.82 µM
  TGI: 4.26 µM
UACC-62 melanoma
  GI50: 1.61 µM
  TGI: 3.07 µM

## O=C(/C=C/C12c3ccccc3C(c3ccccc31)C1C(=O)NC(=O)C12)c1ccc(Cl)cc1 (configuration not stated)
ACHN renal
  GI50: 1.65 µM
  TGI: 3.02 µM
HCT-15 colon
  GI50: 1.47 µM
  TGI: 4.07 µM
HOP-92 NSCLC
  GI50: 1.32 µM
  TGI: 2.86 µM
NCI-H23 lung
  GI50: 1.78 µM
  TGI: 3.83 µM
OVCAR-5 ovarian
  GI50: 1.58 µM
  TGI: 3.35 µM
PC-3 prostate
  GI50: 1.39 µM
  TGI: 2.78 µM
SR leukemia
  GI50: 2.15 µM
  TGI: > 100 µM
SW-620 colon
  GI50: 1.89 µM
  TGI: 4.26 µM
UACC-62 melanoma
  GI50: 1.4 µM
  TGI: 2.77 µM

## N#CN1CC[C@H](C(=O)Nc2cc3cc(C(N)=O)ccc3cn2)C1
ACHN renal
  GI50: 0.333 µM
HCT-15 colon
  GI50: 0.302 µM
  TGI: > 100 µM
HOP-92 NSCLC
  GI50: 0.0692 µM
  TGI: 0.542 µM
NCI-H23 lung
  GI50: 0.13 µM
  TGI: 2.05 µM
OVCAR-5 ovarian
  GI50: 0.51 µM
  TGI: > 68.4 µM
PC-3 prostate
  GI50: 0.257 µM
  TGI: 20.4 µM
SF-295 CNS
  GI50: 0.392 µM
  TGI: > 47.7 µM
SR leukemia
  GI50: 0.0347 µM
SW-620 colon
  GI50: 0.0969 µM
  TGI: > 84.9 µM
UACC-62 melanoma
  GI50: 0.0587 µM
  TGI: 0.399 µM

## O=C(Nc1cc(Oc2cc(F)c(NC(=O)C3(C(=O)Nc4ccc(F)cc4)CC3)cc2F)ccn1)C1CC1
ACHN renal
  GI50: 2.87 µM
  TGI: > 100 µM
HCT-15 colon
  GI50: 3 µM
  TGI: > 54.2 µM
HOP-92 NSCLC
  GI50: 0.59 µM
  TGI: 5.86 µM
NCI-H23 lung
  GI50: 1.31 µM
  TGI: 6.02 µM
OVCAR-5 ovarian
  GI50: 3.12 µM
  TGI: > 100 µM
PC-3 prostate
  GI50: 2.51 µM
  TGI: 6.85 µM
SF-295 CNS
  GI50: 2.21 µM
  TGI: 9.91 µM
SR leukemia
  GI50: 1.7 µM
  TGI: 5.38 µM
SW-620 colon
  GI50: 3.12 µM
  TGI: > 100 µM
UACC-62 melanoma
  GI50: 1.19 µM
  TGI: 5.6 µM

## COc1ccc(/C=C\c2cc(OC)c(OC)c(OC)c2)cc1OCC(=O)Nc1ccc2nc(C)sc2c1
ACHN renal
  GI50: 3.12 µM
  TGI: 10.9 µM
HCT-15 colon
  GI50: 2.8 µM
  TGI: 10.4 µM
HOP-92 NSCLC
  GI50: 2.38 µM
  TGI: 7.62 µM
NCI-H23 lung
  GI50: 2.53 µM
  TGI: 7.95 µM
OVCAR-5 ovarian
  GI50: 6.69 µM
  TGI: > 100 µM
PC-3 prostate
  GI50: 2.8 µM
  TGI: 8.01 µM
SF-295 CNS
  GI50: 2.45 µM
  TGI: 6.85 µM
SR leukemia
  GI50: 2.93 µM
  TGI: > 100 µM
SW-620 colon
  GI50: 4.7 µM
  TGI: 31.9 µM
UACC-62 melanoma
  GI50: 2.19 µM
  TGI: 5.16 µM

## COc1ccccc1NS(=O)(=O)c1ccc2oc(SC(C)C)nc2c1
ACHN renal
  GI50: 21 µM
  TGI: > 100 µM
HCT-15 colon
  GI50: 29.4 µM
  TGI: > 100 µM
HOP-92 NSCLC
  TGI: 13 µM
NCI-H23 lung
  GI50: 8.66 µM
  TGI: > 100 µM
OVCAR-5 ovarian
  GI50: 48.9 µM
  TGI: > 100 µM
PC-3 prostate
  GI50: 12.4 µM
  TGI: 45.7 µM
SF-295 CNS
  GI50: 11.1 µM
  TGI: 37 µM
SR leukemia
  GI50: 3.62 µM
  TGI: 24.4 µM
SW-620 colon
  GI50: 31.6 µM
  TGI: > 100 µM
UACC-62 melanoma
  GI50: 18.5 µM
  TGI: > 100 µM

## CCN1C[C@]2(COC)[C@H](O)C[C@H](OC)[C@]34C1[C@H]([C@H](OC)[C@H]23)[C@]1(OC(C)=O)[C@H]2[C@@H](OC(=O)c3ccccc3)[C@](O)(C[C@H]24)[C@@H](OC)[C@@H]1O
ACHN renal
  TGI: > 100 µM
HCT-15 colon
  TGI: > 100 µM
HOP-92 NSCLC
  TGI: > 100 µM
NCI-H23 lung
  TGI: > 100 µM
OVCAR-5 ovarian
  TGI: > 100 µM
PC-3 prostate
  TGI: > 100 µM
SF-295 CNS
  TGI: > 100 µM
SR leukemia
  TGI: > 100 µM
SW-620 colon
  TGI: > 100 µM
UACC-62 melanoma
  TGI: > 100 µM

## Nc1nc(=O)n([C@@H]2CS[C@H](CO)O2)cc1F
ACHN renal
  GI50: > 100 µM
  TGI: > 100 µM
HCT-15 colon
  GI50: > 100 µM
  TGI: > 100 µM
HOP-92 NSCLC
  GI50: > 100 µM
  TGI: > 100 µM
NCI-H23 lung
  GI50: > 100 µM
  TGI: > 100 µM
OVCAR-5 ovarian
  GI50: > 100 µM
  TGI: > 100 µM
PC-3 prostate
  GI50: > 100 µM
  TGI: > 100 µM
SF-295 CNS
  GI50: > 100 µM
  TGI: > 100 µM
SR leukemia
  GI50: > 100 µM
  TGI: > 100 µM
SW-620 colon
  GI50: > 100 µM
  TGI: > 100 µM
UACC-62 melanoma
  GI50: > 100 µM
  TGI: > 100 µM

## COc1cc2c(=O)n(CCN(C)C)c3c4cc5c(cc4ccc3c2cc1OC)OCO5
ACHN renal
  GI50: 0.128 µM
  TGI: 0.363 µM
HCT-15 colon
  GI50: 0.391 µM
  TGI: 1.83 µM
HOP-92 NSCLC
  GI50: 0.505 µM
  TGI: 2.6 µM
NCI-H23 lung
  GI50: 0.212 µM
  TGI: 1.38 µM
OVCAR-5 ovarian
  GI50: 0.519 µM
  TGI: 3.8 µM
PC-3 prostate
  GI50: 0.338 µM
  TGI: 6.16 µM
SF-295 CNS
  GI50: 0.155 µM
  TGI: 3.15 µM
SR leukemia
  GI50: 0.0557 µM
  TGI: 3.78 µM
SW-620 colon
  GI50: 0.239 µM
  TGI: 6.87 µM
UACC-62 melanoma
  GI50: 0.115 µM
  TGI: 0.435 µM

## C#CC1(O)CCC2[C@@H]3CCc4cc(Oc5nc(F)nc(-c6c7ccccc7cn6C)n5)ccc4C3CC[C@@]21C (some centres not stated)
ACHN renal
  TGI: > 100 µM
HCT-15 colon
  TGI: > 100 µM
HOP-92 NSCLC
  TGI: > 100 µM
NCI-H23 lung
  TGI: > 100 µM
OVCAR-5 ovarian
  TGI: > 100 µM
SF-295 CNS
  TGI: > 100 µM
SR leukemia
  TGI: > 72.6 µM
SW-620 colon
  TGI: > 100 µM
UACC-62 melanoma
  TGI: > 100 µM

## N#Cc1c(N)nc(NCc2ccccc2)c(C#N)c1-c1ccc(Cl)cc1Cl
ACHN renal
  GI50: > 100 µM
  TGI: > 100 µM
HCT-15 colon
  GI50: > 100 µM
  TGI: > 100 µM
HOP-92 NSCLC
  GI50: 1.12 µM
  TGI: > 100 µM
NCI-H23 lung
  GI50: > 76.1 µM
  TGI: > 100 µM
OVCAR-5 ovarian
  GI50: 96.9 µM
  TGI: > 100 µM
PC-3 prostate
  GI50: 55.7 µM
  TGI: > 100 µM
SF-295 CNS
  GI50: > 63.9 µM
  TGI: > 100 µM
SR leukemia
  GI50: 2.07 µM
  TGI: 21.8 µM
SW-620 colon
  GI50: 74.4 µM
  TGI: > 100 µM
UACC-62 melanoma
  GI50: > 100 µM
  TGI: > 100 µM

## O=c1oc2ccc(-c3ccc(F)cc3F)cc2c(=O)n1-c1ccc(Cl)c(C(F)(F)F)c1
ACHN renal
  GI50: 3.12 µM
  TGI: 9.8 µM
HCT-15 colon
  GI50: 2.04 µM
  TGI: 8.19 µM
HOP-92 NSCLC
  GI50: 1.58 µM
  TGI: 5.39 µM
NCI-H23 lung
  GI50: 1.83 µM
  TGI: 4.59 µM
OVCAR-5 ovarian
  GI50: 4.31 µM
  TGI: > 100 µM
PC-3 prostate
  GI50: 2.95 µM
  TGI: 35.8 µM
SF-295 CNS
  GI50: 1.81 µM
  TGI: 3.62 µM
SR leukemia
  GI50: 2.43 µM
  TGI: 8.8 µM
SW-620 colon
  GI50: 3.16 µM
  TGI: 11.7 µM
UACC-62 melanoma
  GI50: 1.55 µM
  TGI: 4.15 µM

— PubChem BioAssay (NCI)
